Where two headings read alike, the source gives them in different places. Where a SMILES comes first, the peptide text is derived from it. Bridges are numbered along the chain shown (N, C = ends). [ ]: non-standard residue; d: D form.
Legend:
[1] = test system: ischemic reperfusion injury in mouse heart; test: In vivo pressure-volume relationships after I/R (left ventricular catheterization); set-up: species or system C57B1/6J mice; settings: 50 mg/kg IP pretreatment, 24 h reperfusion
Description: In order to determine hemodynamic differences, we measured the pressure-volume (P-V) relationships in real time in 3 groups of mice, including a sham group that was exposed to the open heart operation but not FR, and the two I/R (20min ischemia/24h reperfusion) induced groups pretreated with either vehicle or GsMTx4-D. To measure the P-V relationships, mice were anesthetized with 4% isoflurane and 100% O2, quickly intubated and ventilated with a respirator. […] The rib cage was slightly retracted and the diaphragm was gently cut away to attain an apical view of the myocardium. A 27-gauge needle was inserted into the apex of the LV free wall to create a guide-hole. A 1.2-French microtransducer pressure-volume impedance catheter (Scisense, London, ON, CA) was then inserted into the lumen of LV to assess real-time LV function. Hemodynamic parameters such as heart rate, cardiac output, and ejection fraction were measured and calculated with the iWorx software (Dover, N.H.). Each group included 5 (sham and GsMTx4-D) to 6 (vehicle) independent experiments.
To examine the effects of GsMTx4-D on hemodynamics, we compared the P-V relationships between the GsMTx4-D (50 mg/kg) and vehicle (saline 50 μL) in pretreated mice. After 20 min of ischemia followed by 24 h reperfusion, the left ventricle was catheterized to acquire real time P-V relationships (FIG. 3). […] In addition, GsMTx4-D produced improvements in both end systolic and diastolic volumes (FIG. 3 H and I) that led to a significant improvement in ejection fraction (61.7±3.4%, P<0.05) (FIG.3 G). Clearly, GsMTx4-D improves heart function after FR.

[2] = test system: ischemic reperfusion injury in mouse heart; format: in vivo, C57B1/6J mice; settings: for myocardial infarction (infarct area / AAR): 4 h reperfusion, vehicle 16.5±1.2%
Description: Acute GsMTx4-D treatment: All animal protocols in this study were approved by the Institutional Animal Care and Use Committee of the University at Buffalo-State University of New York. C57B1/6J mice were anesthetized with 80 mg/kg of sodium pentobarbital (Sigma, St. Louis, Mo.) via intraperitoneal injection (IP), intubated and ventilated with a respirator (Harvard apparatus, Holliston, Mass., USA) 17. Upon absence of a pedal reflex, surgery was performed under a stereomicroscope. Core body temperature was maintained at 37° C. with a heating pad. After a left lateral thoracotomy, the left anterior descending coronary artery (LAD) was occluded just underneath the left atrium for 20 min with an 8-0 nylon suture. […] A small piece of gauze was used to prevent arterial injury. After 20 min the ligature was removed and the tissue was reperfused for up to 4 h before euthanizing. Three different doses of GsMTx4-D (0.1, 1, 10 mg/kg), verapamil (0.4 mg/kg) or vehicle (saline 50 μL) were administered via tail vein injection 5 min before reperfusion (during induced ischemia). ECGs confirmed the hallmark ischemic ST segment elevation during coronary occlusion (AD Instruments, Colorado Springs, CO, USA). Each group included 5 independent experiments. At the conclusion of the study, mice were euthanized by IP injection of 270 mg/kg pentobarbital. GsMTx4-D pretreatment: To evaluate the effect of GsMTx4-D pretreatment, GsMTx4-D (50 mg/kg) or vehicle (saline 50 μL) were administered via IP injection once daily for 2 days prior to surgery. Ischemia was then elicited with the same 20 min coronary occlusion followed by 24 h reperfusion. Following reperfusion, the chest was closed in layers. A drop of lidocaine was put on the suture site and the mouse was slowly weaned off the ventilator when they resumed spontaneous breathing. The mouse was returned to its cage and kept warm and medicated for pain (buprenorphine). Each group included 5 independent experiments.
To measure infarct size, hearts were harvested and excised for dual staining at the conclusion of reperfusion. The non-necrotic tissue in the ischemic region was stained red with 2,3,5- triphenyltetrazolium (TTC) and non-ischemic regions were stained blue with Evans blue. The hearts were fixed and sectioned into 1 mm slices, photographed with a Lexica MZ95 microscope and analyzed with NIH ImageJ software (http://imagej.nih.gov/ij/) 19. The infarct size was calculated as the ratio of the percentage of myocardial necrosis to the ischemic Area At Risk (AAR).
To test whether GsMTx4-D protected the heart against reperfusion injury, we first tested three different doses of the peptide. The positive control was verapamil, a voltage-gated calcium channel inhibitor with established cardioprotective effects on IRI. C57B1/6 mice were subjected to 20 min occlusion of the LAD followed by 4 hours of reperfusion. Three different concentrations of GsMTx4-D (0.1, 1 and 10 mg/kg), verapamil (0.4 mg/kg), or vehicle (saline) were administered through tail vein injection 5 min before reperfusion. […] At the conclusion of reperfusion, the hearts were stained with TTC and Evans Blue (FIG. 2A). […] The verapamil group also had lower infarction size (14.0±0.4%), but the difference wasn't statistically significant. […] To evaluate whether pretreatment with GsMTx4-D could also protect the heart from I/R injury, GsMTx4-D (50 mg/kg) or vehicle (saline 50 μL) were administered daily via IP injection, for 2 days prior to I/R surgery. As before, ischemia was induced from 20 min LAD occlusion, but reperfusion was allowed to continue for 24 hrs. The chest was closed in layers, and animals were weaned off the ventilator when they resumed spontaneous breathing. […] The ratios of AAR to total myocardial area between the two groups were equal as determined by TTC and Evans Blue staining (FIG. 3A and B). […]

[3] = Single-dose pharmacokinetic study, plasma and heart concentration by LC/MS/MS; format: in vivo, CD-1 mice; settings: based on the PK analysis

`CC(C)C[C@H]1NC(=O)[C@H](NC(=O)CN)CSSC[C@H]2NC(=O)[C@H]3CSSC[C@H](C(=O)N[C@H](CC(N)=O)C(=O)N[C@H](Cc4ccccc4)C(=O)N[C@H](CO)C(=O)N[C@H](Cc4ccccc4)C(N)=O)NC(=O)[C@@H](CC(C)C)NC(=O)[C@@H](CCCCN)NC(=O)[C@@H](Cc4ccccc4)NC(=O)[C@@H](CC(C)C)NC(=O)[C@@H](CCCCN)NC(=O)[C@@H](CO)NC(=O)[C@@H](CSSC[C@@H](NC(=O)[C@@H](CCCCN)NC(=O)[C@@H](Cc4c[nH]c5ccccc45)NC(=O)[C@@H](Cc4c[nH]c5ccccc45)NC(=O)[C@@H](Cc4ccccc4)NC(=O)[C@@H](CCC(=O)O)NC1=O)C(=O)N[C@H](CC(N)=O)C(=O)N1CCC[C@@H]1C(=O)N[C@H](CC(N)=O)C(=O)N[C@H](CC(=O)O)C(=O)N[C@H](CC(=O)O)C(=O)N[C@H](CCCCN)C(=O)N3)NC(=O)[C@@H](CCCCN)NC(=O)[C@@H](CC(C)C)NC(=O)[C@@H](CCCCN)NC(=O)[C@H]1CCCN1C(=O)[C@@H](CCCNC(=N)N)NC2=O` [GsMTx4-D] (H-G[dC][dL][dE][dF][dW][dW][dK][dC][dN][dP][dN][dD][dD][dK][dC][dC][dR][dP][dK][dL][dK][dC][dS][dK][dL][dF][dK][dL][dC][dN][dF][dS][dF]-NH2; disulfide 2-17, 9-23, 16-30 (inferred); N-terminus and C-terminus assumed) showed a stroke volume ([1]; vehicle 18.9±2.3, sham 26.7±1.9) of 26.2 ± 1.9 µL, an ejection fraction ([1]; vehicle 44.4±4.9, sham 75.5±6.4) of 61.7±3.4% and a heart rate ([1]; vehicle 243.9±6.9, sham 304.0±23.6) of 298.7±14.3 bpm. The cardiac output ([1]; vehicle 4636±602, sham 8039±690) was 77580 ± 321 µL/min, the “end systolic and diastolic volumes” value ([1]; vs vehicle) was “improvements” and the “myocardial infarction (infarct area / AAR)” value ([2]; 1.0 mg/kg tail vein 5 min before reperfusion) was 9.9±1.3%. The “myocardial infarction (infarct area / AAR)” value ([2]; 10 mg/kg tail vein 5 min before reperfusion) was 12.4±0.5%, the side-effects from pretreatment ([2]; 50 mg/kg IP daily for 2 days) was “did not detect any side-effects” and the “infarction size (infarct area / AAR)” value ([2]; 50 mg/kg IP daily for 2 days prior to surgery, 24 h reperfusion, vehicle 16.8±1.1%) was 10.5±0.7%. The “death or morbidity in acute I/R treatment” value ([2]; 0.1, 1 and 10 mg/kg tail vein injection) was “no death or morbidity observed”, the “toxicity in the heart during these studies” value ([2]; acute IV and IP pretreatment I/R studies) was “no overt signs of toxicity” and the “predicted concentration in the heart at the time of reperfusion” value ([3]; after the 1 mg/kg IV injection during ischemia) was less than 0.5 µM. For the same molecule, the “predicted concentration in the heart at the time of reperfusion” value ([3]; after two IP pretreatments (50 mg/kg)) was 1 to 2 µM.
